From PubChem BioAssay (NCI)
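Step 1: Grow cells in 96-well plates. Step 2: Expose to compound for 48 hours at 5 concentrations. Step 3: Interpolate endpoints linearly; if unreached, use highest concentration. TGI: concentration producing complete growth inhibition.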

Legend:
Assay in all cases: DTP human tumour cell line panel, 48 h
DMS 273 small cell lung = system: DMS 273 small cell lung
M19-MEL melanoma = system: M19-MEL melanoma
DLD-1 colon = system: DLD-1 colon
SNB-78 CNS = system: SNB-78 CNS
HOP-18 NSCLC = system: HOP-18 NSCLC
RXF-631 renal = system: RXF-631 renal
XF 498 CNS = system: XF 498 CNS

## O=C1Nc2cccc3ncn(c23)C2=C1CCCC2
DMS 273 small cell lung
  TGI: > 100 µM
M19-MEL melanoma
  TGI: > 100 µM
DLD-1 colon
  TGI: > 100 µM
SNB-78 CNS
  TGI: > 100 µM
HOP-18 NSCLC
  TGI: 83.8 µM

## O=C1CC2CC=C[C@H]3c4cc5c(cc4C(=O)N1C23)OCO5 (some centres not stated)
DMS 273 small cell lung
  TGI: > 50 µM
M19-MEL melanoma
  TGI: > 50 µM
DLD-1 colon
  TGI: > 50 µM
SNB-78 CNS
  TGI: > 50 µM

## O=C(O)C(CS)NCc1c2ccccc2[n+]([O-])c2ccccc12 (configuration not stated)
DMS 273 small cell lung
  TGI: > 100 µM
M19-MEL melanoma
  TGI: > 100 µM
DLD-1 colon
  TGI: > 100 µM
SNB-78 CNS
  TGI: > 100 µM
HOP-18 NSCLC
  TGI: > 100 µM
RXF-631 renal
  TGI: > 100 µM

## O=C1C=C(N2CCCC2)C=C(N2CCCC2)C1
DMS 273 small cell lung
  TGI: > 100 µM
M19-MEL melanoma
  TGI: 91.2 µM
XF 498 CNS
  TGI: > 100 µM
DLD-1 colon
  TGI: > 100 µM
SNB-78 CNS
  TGI: > 100 µM
HOP-18 NSCLC
  TGI: > 100 µM

## CCC1(OC(=O)CN2CCN(CCO)CC2)C(=O)OCc2c1cc1n(c2=O)Cc2cc3ccccc3nc2-1 (configuration not stated)
DMS 273 small cell lung
  TGI: 0.367 µM
M19-MEL melanoma
  TGI: 6.99 µM
XF 498 CNS
  TGI: 14.2 µM
DLD-1 colon
  TGI: > 100 µM
SNB-78 CNS
  TGI: > 100 µM
HOP-18 NSCLC
  TGI: 25.8 µM

## CCOc1ccc(N2C(=O)C3c4[nH]c5ccccc5c4C4CCC(C(C)(C)C)CC4C3C2=O)cc1 (configuration not stated)
DMS 273 small cell lung
  TGI: > 100 µM
XF 498 CNS
  TGI: > 100 µM
DLD-1 colon
  TGI: > 100 µM
SNB-78 CNS
  TGI: > 100 µM
HOP-18 NSCLC
  TGI: > 100 µM
